One assay has as its system Chlamydia pneumoniae. Kind of assay: Antibiotic susceptibility test in HL cells (MIC, no inclusions detected). Type of assay: cell-based. Conditions: 72 h. The method, then: (§1) For Chlamydia trachomatis isolation McCoy cells were used and for Chlamydia pneumoniae—HL cells.
(§2) Cells of each cell line were seeded into 24-well cell culture plates (approximately 2×10^5 cells per well) with cover-slips and incubated at 37° C. for 24 h to achieve monolayer confluence.
(§3) 1 ml of serum was centrifuged at 14,000×g for 1 h at 4° C. to sediment bacterial cells. Supernatant was discarded and pellet was suspended in 0.5 ml of GM (growth medium: RPMI, 5% [vol/vol] fetal calf serum, 2.0 mM L-glutamine, 8.8% [vol/vol] glucose, 4.0 μg of gentamicin per ml and 5.0 of amfotherycin B/ml). The cell monolayers were inoculated with the suspensions and centrifuged at 2,500×g for an hour at 20 °C. The infected cells were incubated for 2 h at 37° C.; after that, the medium was removed and replaced by GM with cycloheximide (1.0 μg/ml). The cells were incubated at 37° C. in 4% CO2 for 72 h.
(§4) The cells on the cover-slips were fixed with acetone and stained with a fluorescein isothiocyanate (FITC)-labeled Chlamydia genus-specific (anti-LPS) and Chlamydia trachomatis-specific (anti-MOMP) antibodies. Chlamydia inclusions were detected by fluorescent microscopy.
(§5) McCoy and HL cells were seeded and inoculated with serum samples as described above but after centrifugation at 2,500×g for an hour and incubation for 2 h at 37° C. the infected cells were overlaid with the growth medium containing serial twofold dilutions of the antibiotic (Azithromycin, Pliva) at concentration range from 0.05 to 0.8 μg/ml and incubated at 37° C. in 4% CO2 for 72 h. Chlamydia trachomatis L-2 and Chlamydia pneumoniae Kajaani 6 strains were used as reference strains. The MIC was defined as the lowest concentration at which no inclusions were detected.

For a further assay, the system named is Chlamydia trachomatis. The assay is described as follows: Antibiotic susceptibility test in McCoy cells (MIC, no inclusions detected). Particulars: 72 h. Type of assay: cell-based. The method, then:
as §1, §2, §3, §4, §5

As to `CC[C@H]1OC(=O)[C@H](C)[C@@H](O[C@H]2C[C@@](C)(OC)[C@@H](O)[C@H](C)O2)[C@H](C)[C@@H](O[C@@H]2O[C@H](C)C[C@H](N(C)C)[C@H]2O)[C@](C)(O)C[C@@H](C)CN(C)[C@H](C)[C@@H](O)[C@]1(C)O` [Azithromycin], the “Range of anti-microbial concentration” value in the assay with Chlamydia pneumoniae (Chlamydia pneumoniae isolated from serum of Patient C) was over 0.4 µg/mL; with Chlamydia pneumoniae (Chlamydia pneumoniae isolated from serum of Patient D), over 0.4 µg/mL; in the assay with Chlamydia pneumoniae (Chlamydia pneumoniae reference strain Kajaani 6), over 0.05 µg/mL; in the assay on Chlamydia trachomatis (Chlamydia trachomatis isolated from serum of Patient A), over 0.4 µg/mL; with Chlamydia trachomatis (Chlamydia trachomatis isolated from serum of Patient B) it was over 0.4 µg/mL; with Chlamydia trachomatis (Chlamydia trachomatis reference strain L-2, tested range 0.05 to 0.8 μg/ml), over 0.1 µg/mL.

Source of the values: patent US20090042814A1, “Treatment and Diagnosis of Obligate Intracellular Pathogens” (priority 2005, published 2009).
